Source: US9487500B2, “Compounds and compositions thereof” (Inhibikase Therapeutics, Inc., priority 2012, dated 2016)

Test system: K562 cells
Experiment: MTS cell viability assay (K562 cell line)
Format: cell-based
Conditions: Homo sapiens, 48 hr
Method: K562 cells were the first human immortalised myelogenous leukemia line to be established. K562 cells are of the erythroleukemia type, and the line is derived from a CML patient. The cells are non-adherent and rounded, are positive for the bcr:abl fusion gene.
K562 cell line is maintained in RPMI1640 with 10% fetal Bovine Serum. 2500 cells/well of K562 cells were plated in 96 well tissue culture plate. Cells were incubated for 48 hours with serially diluted compound (final concentration from 20 μM-0.002 μM) for 48 hr. MTS (3-(4,5-dimethylthiazol-2-yl)-5-(3-carboxymethoxyphenyl)-2-(4-sulfophenyl)-2H-tetrazolium), obtained from Promega was added to the wells and plates were incubated at […] in 5% CO2 for 4 hrs. The MTS compound is bio-reduced by cells into a colored formazan product that is soluble in tissue culture medium. The quantity of formazan product as measured by the amount of 490 nm absorbance is directly proportional to the number of living cells in culture. The absorbance was read at 490 nm (Spectramax microplate reader). The Percentage inhibition was calculated and plotted against the concentration of inhibitor and data was fit to Non Linear Regression curve fit (sigmoidal dose response curve with variable slope-four parameters) using Graph pad prism 5.

| Compound | inhibition at 0.2 µM | inhibition at 2 µM | inhibition at 20 µM |
| --- | --- | --- | --- |
| Cc1ccc(NC(=O)c2ccc(CN3CC[N+](C)(COC(=O)N[C@H](C)c4ccccc4)CC3)cc2)cc1Nc1nccc(-c2cccnc2)n1 [Compound 1011, (R)-1-methyl-4-(4-((4-methyl-3-((4-(pyridin-3-yl)pyrimidin-2-yl)amino)phenyl)carbamoyl)benzyl)-1-((((1-phenylethyl)carbamoyl)oxy)methyl)piperazin-1-ium iodide] | 45% | 63% | 70% |
| CCC(C)(C)OC(=O)OC[N+]1(C)CCN(Cc2ccc(C(=O)Nc3ccc(C)c(Nc4nccc(-c5cccnc5)n4)c3)cc2)CC1 [Compound 1028, 1-methyl-4-(4-(4-methyl-3-(4-(pyridin-3-yl)pyrimidin-2-ylamino)phenylcarbamoyl)benzyl)-1-((tert-pentyloxycarbonyloxy)methyl)piperazin-1-ium iodide] | 40% | 63% | 76% |
| Cc1ccc(NC(=O)c2ccc(CN3CCN(C)CC3)cc2)cc1Nc1nccc(-c2cccnc2)n1 [imatinib, 4-[(4-methylpiperazin-1-yl)methyl]-N-(4-methyl-3-{[4-(pyridin-3-yl)pyrimidin-2-yl]amino}phenyl)benzamide, reference compound] | 48% | 64% | 67% |
